{
  "source": "patent US20070191493A1",
  "about": "“Use of n-alkanols as activators of the cftr channel” (priority 2003, published 2007)",
  "key": {"CFTR channel": {"target": "CFTR channel (Homo sapiens, UniProt P13569)", "sequence (P13569 whole entry)": "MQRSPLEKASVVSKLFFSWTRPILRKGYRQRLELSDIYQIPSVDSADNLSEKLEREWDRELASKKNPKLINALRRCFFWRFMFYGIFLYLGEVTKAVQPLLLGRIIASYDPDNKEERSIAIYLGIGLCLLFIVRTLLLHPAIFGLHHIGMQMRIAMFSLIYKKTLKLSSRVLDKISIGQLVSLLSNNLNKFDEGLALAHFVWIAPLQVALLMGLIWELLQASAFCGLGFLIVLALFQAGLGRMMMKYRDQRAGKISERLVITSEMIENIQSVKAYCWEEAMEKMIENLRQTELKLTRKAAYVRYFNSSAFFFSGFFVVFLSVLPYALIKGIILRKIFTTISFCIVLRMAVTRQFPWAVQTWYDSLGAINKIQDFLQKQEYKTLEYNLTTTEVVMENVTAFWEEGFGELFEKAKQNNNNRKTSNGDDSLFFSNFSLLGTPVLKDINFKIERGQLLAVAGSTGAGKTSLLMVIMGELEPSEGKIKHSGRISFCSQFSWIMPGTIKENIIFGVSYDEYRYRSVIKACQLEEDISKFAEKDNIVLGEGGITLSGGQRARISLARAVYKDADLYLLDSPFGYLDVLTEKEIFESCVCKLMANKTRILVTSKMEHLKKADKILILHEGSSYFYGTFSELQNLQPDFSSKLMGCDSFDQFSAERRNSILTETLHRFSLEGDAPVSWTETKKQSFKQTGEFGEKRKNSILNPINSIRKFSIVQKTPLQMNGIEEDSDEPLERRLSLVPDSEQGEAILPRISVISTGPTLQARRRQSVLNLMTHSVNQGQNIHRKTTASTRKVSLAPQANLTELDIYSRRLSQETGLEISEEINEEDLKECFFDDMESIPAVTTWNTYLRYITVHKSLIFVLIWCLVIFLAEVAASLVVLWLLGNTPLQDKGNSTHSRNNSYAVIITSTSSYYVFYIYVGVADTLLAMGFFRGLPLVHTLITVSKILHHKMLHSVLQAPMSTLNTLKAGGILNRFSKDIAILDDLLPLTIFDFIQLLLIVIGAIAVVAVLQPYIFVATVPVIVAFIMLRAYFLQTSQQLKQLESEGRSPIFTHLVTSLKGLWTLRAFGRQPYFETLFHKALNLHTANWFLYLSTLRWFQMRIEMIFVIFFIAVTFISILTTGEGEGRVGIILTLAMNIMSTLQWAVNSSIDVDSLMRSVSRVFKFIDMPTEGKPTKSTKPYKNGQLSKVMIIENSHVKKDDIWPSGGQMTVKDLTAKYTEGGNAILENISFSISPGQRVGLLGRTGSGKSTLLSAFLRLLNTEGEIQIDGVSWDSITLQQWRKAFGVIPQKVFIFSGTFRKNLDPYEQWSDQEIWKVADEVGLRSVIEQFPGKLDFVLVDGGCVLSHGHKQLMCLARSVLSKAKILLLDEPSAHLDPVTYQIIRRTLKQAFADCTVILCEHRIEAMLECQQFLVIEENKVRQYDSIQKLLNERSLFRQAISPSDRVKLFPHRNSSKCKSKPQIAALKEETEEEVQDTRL", "test": "125I radioactive iodide efflux in CHO-CFTR(+) cells", "format": "cell-based", "parameters": "expressed in transfected cells; host or cells: CHO (Chinese hamster ovary) cells, CHO-CFTR(+)", "protocol": "The cells are cultured in 24-well plates with a dilution to 1/10 after passage. […] The operation is repeated every 30 s for 2 to 6 min. […] All the samples are counted in a gamma counter (Kontron). The precipitated proteins are solubilized in 0.1N NaOH and quantified using a calorimetric test.\n(§1) The tracer contained in the cell layer at the beginning of the efflux is calculated as the sum of the samples and of the extracts counted. The efflux curves are constructed by expressing the percentage of the content remaining in the cell layer (I %) with respect to time. The stimulated or nonstimulated efflux rate constants (k, min^−1) are determined by smoothing the efflux curves to a monoexponential function I %=100*exp(−kt) using a linear regression of the neperian logarithm of the data, k is used to calculate the iodide released into the medium with respect to time. The hypothesis is made that, in the presence of a stimulator, the efflux is the sum of two iodide effluxes occurring in parallel: a basal efflux and a stimulated efflux characterized, respectively, by the constants kb and ks. The total net efflux is then described by the equation It^%=100*(1−exp(−ktt)) where kt is the sum of kb and ks. Finally, ks calculated as kt−kb is used to establish a dose-response relationship for antagonists. The data is expressed as means ±SD, and the t-test is used to determine the significances. The concentration-response curves for agonists or for antagonists are smooth using the hyperbolic equation Y=Ymax*X/(EC5C+X), where Y is the response. Y begins at the basal level and progresses to the plateau (Ymax), X is the concentration and the half-effect values (EC are calculated using GraphPad Prism v3.0 (GraphPad software))."}, "[1]": {"target": "T1, ΔF508 mutated CFTR channel (Homo sapiens, UniProt P13569, DEL508-508)", "T1 construct": "epithelial cells extracted from respiratory airways of patients suffering from cystic fibrosis (homozygous ΔF508); endogenous in cells; host or cells: JME/CF15 human airway epithelial cells (homozygous ΔF508)", "T1 sequence (P13569 with tags, fused parts or gaps DEL508-508)": "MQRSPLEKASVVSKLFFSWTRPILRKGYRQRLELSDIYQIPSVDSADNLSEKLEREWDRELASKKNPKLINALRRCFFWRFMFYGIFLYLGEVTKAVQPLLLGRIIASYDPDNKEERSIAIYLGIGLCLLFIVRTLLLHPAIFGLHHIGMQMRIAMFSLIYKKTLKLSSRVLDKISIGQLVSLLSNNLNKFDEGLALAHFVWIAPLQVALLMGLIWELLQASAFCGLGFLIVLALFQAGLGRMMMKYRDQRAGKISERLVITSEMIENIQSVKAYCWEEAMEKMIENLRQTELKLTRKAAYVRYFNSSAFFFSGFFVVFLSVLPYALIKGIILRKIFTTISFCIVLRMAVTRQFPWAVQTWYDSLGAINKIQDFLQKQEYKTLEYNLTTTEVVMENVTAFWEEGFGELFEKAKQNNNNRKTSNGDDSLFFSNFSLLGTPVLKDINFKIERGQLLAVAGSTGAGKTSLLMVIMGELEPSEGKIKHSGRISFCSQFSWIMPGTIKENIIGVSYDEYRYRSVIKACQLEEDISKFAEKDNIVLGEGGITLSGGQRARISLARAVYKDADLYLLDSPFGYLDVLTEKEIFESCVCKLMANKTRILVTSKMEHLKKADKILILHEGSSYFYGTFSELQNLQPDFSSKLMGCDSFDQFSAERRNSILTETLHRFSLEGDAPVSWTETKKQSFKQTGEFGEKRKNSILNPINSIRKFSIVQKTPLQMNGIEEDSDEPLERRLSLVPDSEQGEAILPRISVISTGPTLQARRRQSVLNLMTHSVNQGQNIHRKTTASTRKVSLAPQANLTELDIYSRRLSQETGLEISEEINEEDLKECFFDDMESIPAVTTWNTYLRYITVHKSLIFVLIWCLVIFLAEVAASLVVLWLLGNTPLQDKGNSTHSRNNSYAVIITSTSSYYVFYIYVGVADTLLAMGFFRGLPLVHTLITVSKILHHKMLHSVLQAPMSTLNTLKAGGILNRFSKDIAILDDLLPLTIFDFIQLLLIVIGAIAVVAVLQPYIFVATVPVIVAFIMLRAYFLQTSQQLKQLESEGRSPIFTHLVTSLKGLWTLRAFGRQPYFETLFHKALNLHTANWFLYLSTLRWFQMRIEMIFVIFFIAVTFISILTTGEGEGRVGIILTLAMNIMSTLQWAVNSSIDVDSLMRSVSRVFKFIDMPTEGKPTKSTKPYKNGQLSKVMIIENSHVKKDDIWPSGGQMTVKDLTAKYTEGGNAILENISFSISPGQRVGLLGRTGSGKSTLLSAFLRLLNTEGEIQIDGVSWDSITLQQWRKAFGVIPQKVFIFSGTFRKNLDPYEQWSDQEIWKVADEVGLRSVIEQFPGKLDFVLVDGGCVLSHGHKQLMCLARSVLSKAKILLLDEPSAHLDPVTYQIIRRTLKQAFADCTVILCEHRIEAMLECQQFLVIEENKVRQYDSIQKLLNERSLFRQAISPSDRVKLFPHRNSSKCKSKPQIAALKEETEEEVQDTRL", "test": "iodide efflux in JME/CF15 human bronchial epithelial cells from cystic fibrosis patients", "format": "cell-based", "conditions": "JME/CF15 cells", "protocol": "The CFTR studies are also carried out on Calu-3 cells (ATCC No. HTB-55), which are human pulmonary epithelial cells endogenously expressing the CFTR channel. These cells are cultured under the same culture conditions as the CHO cells. The study of the mutated CFTR channel is carried out on JME/CF15 cells, which are epithelial cells extracted from respiratory airways of patients suffering from cystic fibrosis (homozygous ΔF508) (Jefferson et al., 1990). These cells therefore express the ΔF508 mutated CFTR channel. These cells are cultured under the same conditions as above, but the culture medium is supplemented with a hormone mixture containing: adenine (180 μM), insulin (5 μg/ml), transferrin (5 μg/ml), hydrocortisone (1.1 μM), triiodothyronine (2 nM), epinephrine (5.5 μM), epidermal growth factor (1.64 nM).\nThis technique makes it possible to follow the kinetics of exit of the ^125I radioactive iodide. The cells are cultured in 24-well plates with a dilution to 1/10 after passage. On the fourth day of culture, the drugs to be tested are dissolved in solution according to the desired concentration, at 37° C., in medium B, at pH 7.4, containing, in mM: 137 NaCl, 5.36 KCl, 0.8 mM MgCl2, 1.8 mM CaCl2, 5.5 glucose and 10 HEPES-NaOH. The wells are washed 4 times with 500 μl of medium B. The solution is subsequently replaced with 500 μl of loading solution containing 1 μM KI and 0.5 μCi of ^125INa/ml for 30 min. The kinetics of exit of ^125I are determined after having eliminated the loading solution and washed the wells 4 times with 500 μl of medium B. For the ^125I exit kinetics, 500 μl of medium B containing or not containing the molecules to be tested are incubated for 30 sec in the wells and recovered in a hemolysis tube, so as to be replaced with 500 μl of medium B containing or not containing the molecules to be tested. The operation is repeated every 30 s for 2 to 6 min. At the end of the efflux, the intracellular ions are extracted by adding 1 ml of trichloroacetic acid (7.5%) to the cell layer. All the samples are counted in a gamma counter (Kontron). The precipitated proteins are solubilized in 0.1N NaOH and quantified using a calorimetric test.\nas §1, with “The concentration-response curves for agonists or for antagonists are smooth using the hyperbolic equation Y=Ymax*X/(EC5C+X), where Y is the response.” left out"}},
  "note": "Read-outs that look alike come from different tables or passages of the source.",
  "data": [
    {"smiles": "CCCCCCCCO", "note": "[octan-1-ol]", "values": [
      {"measurement": "order of activation of CFTR by n-alkanols", "setting": "CFTR channel; 1 mM, 125I efflux or patch-clamp", "value": "hexan-1-ol<heptan-1-ol<octan-1-ol<octan-2-ol<decan-1-ol"},
      {"measurement": "concentration at which plateau of CFTR activation is reached", "setting": "CFTR channel; CHO-CFTR(+) cells", "value": 1, "unit": "mM"},
      {"measurement": "activation of CFTR (125I efflux), in words", "setting": "CFTR channel; CHO-CFTR(+) cells, n-alkanols 1 mM, FSK 1 μM, A23187 2 μM, α-GA 10 and 100 μM", "value": "increase in activation of CFTR"},
      {"measurement": "EC50", "setting": "CFTR channel; CHO-CFTR(+) cells, read-out: half-activation dose", "value": 500, "unit": "µM"},
      {"measurement": "EC50", "setting": "CFTR channel; EC50 of activation of CFTR (125I efflux rate constant), CHO-CFTR(+) cells, octan-1-ol 0.1 to 5 mM", "value": "~500", "unit": "µM"},
      {"measurement": "effect on the basal level when the mutated channel is not present at the plasma membrane", "setting": "[1]", "value": "has no effect on the basal level"},
      {"measurement": "activation of ΔF508 mutated CFTR channel, in words", "setting": "[1]; 1 mM", "value": "specifically activates the ΔF508 mutated CFTR channel"},
      {"measurement": "activation of mutated CFTR-ΔF508 channel as share of maximum activity (10 μM FSK+30 μM genistein = 100%)", "setting": "[1]; octan-1-ol 1 mM", "value": "approximately 50%"}
    ]}
  ]
}
